# In US6737383B1, “Herbicidal oxadiazolidines” (priority 1999, dated 2004):
# Assays:
# pigweed = assay: Test B pre/postemergence pigweed; type: in vivo, Amaranthus retroflexus
# Method in brief: (§1)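 Response is a visual 0-to-10 score relative to untreated plants, where 0 means no effect and 10 means complete control, taken twelve to sixteen days after application. Treatments went onto soil at planting and onto foliage of 1- to 4-leaf plants, using a surfactant-containing non-phytotoxic solvent.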
# sugar beet = assay: Test B pre/postemergence sugar beet; type: in vivo, Beta vulgaris
# Method in brief: as §1
# purple nutsedge = assay: Test B pre/postemergence purple nutsedge; type: in vivo, Cyperus rotundus
# Method in brief: as §1
# rice = assay: Test B flood test rice; type: in vivo, Oryza sativa
# Method in brief: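 Read-out is a visual response score from 0 (no effect) to 10 (complete control), assigned by comparison with untreated controls. Treatment was applied at the 2-leaf stage, and plants stayed in the greenhouse for twelve to sixteen days before scoring.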
# winter wheat [1] = assay: Test E winter wheat; type: in vivo, Triticum aestivum; details: Postemergence
# Method in brief: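 Greenhouse test: compounds in non-phytotoxic solvent with surfactant; for postemergence, sprayed on plants at 1- to 4-leaf stage grown in 60:40 sandy loam/potting mix. Injury rated visually against untreated controls after about 21 to 28 days.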
# blackgrass = assay: Test E blackgrass; type: in vivo, Alopecurus myosuroides; details: Preemergence
# green foxtail = assay: Test E green foxtail; type: in vivo, Setaria viridis; details: Preemergence
# Italian ryegrass = assay: Test E Italian ryegrass; type: in vivo, Lolium multiflorum; details: Preemergence
# winter wheat [2] = assay: Test E winter wheat; type: in vivo, Triticum aestivum; details: Preemergence
# wild oat = assay: Test E wild oat; type: in vivo, Avena fatua; details: Preemergence
# winter barley = assay: Test E winter barley; type: in vivo, Hordeum vulgare; details: Preemergence
# [3] = Postemergence, Rate 125 g/ha, scale of 0 to 10 where 0 is no effect and 10 is complete control
# [4] = Postemergence, Rate 1000 g/ha, scale 0 to 10 (0 no effect, 10 complete control)
# [5] = Preemergence, Rate 62 g/ha, scale of 0 to 10 where 0 is no effect and 10 is complete control
# [6] = Preemergence, Rate 125 g/ha, 0 is no effect, 10 is complete control
# [7] = Preemergence, Rate 250 g/ha, scale 0 to 10, 0 is no effect, 10 is complete control
# [8] = Preemergence, Rate 500 g/ha, scale 0 to 10 (0 no effect, 10 complete control)
# [9] = Rate 62 g/ha, Postemergence, scale of 0 to 10 where 0 is no effect and 10 is complete control
# [10] = Rate 250 g/ha, Postemergence, scale 0 to 10, 0 is no effect, 10 is complete control
# [11] = Rate 500 g/ha, Postemergence, scale 0 to 10
# [12] = Rate 1000 g/ha, Preemergence, scale 0 to 10 (0 no effect, 10 complete control)
# [13] = Rate 2000 g/ha, Postemergence, scale 0 to 10
# [14] = Rate 2000 g/ha, Preemergence, scale 0 to 10
# [15] = Rate 250 g/ha, Pre-emergence, flood-test species, scale 0 to 10, 0 is no effect, 10 is complete control
# [16] = Rate 2000 g/ha, Pre-emergence (as headed), scale 0 to 10
# [17] = Rate 2000 g/ha, 0 to 100 scale, 0 is no effect and 100 is complete control
# [18] = Rate 500 g/ha, 0 to 100 scale, 0 is no effect, 100 is complete control
# [19] = Rate 500 g/ha, 0 to 100 scale where 0 is no effect and 100 is complete control
# [20] = Rate 1000 g/ha, 0 to 100 scale where 0 is no effect and 100 is complete control
# [21] = Preemergence, Rate 250 g/ha, scale of 0 to 10 where 0 is no effect and 10 is complete control
# [22] = Preemergence, Rate 500 g/ha, scale of 0 to 10 where 0 is no effect and 10 is complete control
# [23] = Rate 125 g/ha, Postemergence, scale of 0 to 10 where 0 is no effect and 10 is complete control
# [24] = Rate 125 g/ha, Preemergence, scale of 0 to 10 where 0 is no effect and 10 is complete control
# [25] = Rate 250 g/ha, Postemergence, scale of 0 to 10 where 0 is no effect and 10 is complete control
# [26] = Rate 500 g/ha, Postemergence, scale 0 to 10, 0 no effect, 10 complete control
# [27] = Rate 1000 g/ha, 0 to 100 scale, 0 no effect, 100 complete control
smiles,measurement,setting,value
CC(C)N(C(=O)n1oc(=O)n(N(C)c2ccccc2)c1=O)c1ccc(F)cc1 [Compound 177],Redroot pigweed plant response rating,pigweed; [3],0
same,Redroot pigweed plant response rating,pigweed; [4],2
same,Redroot pigweed plant response rating,pigweed; [5],0
same,Redroot pigweed plant response rating (0 to 10 scale),pigweed; [6],0
same,Redroot pigweed plant response rating,pigweed; [7],0
same,Redroot pigweed plant response rating,pigweed; [8],0
same,Redroot pigweed plant response rating,pigweed; [9],0
same,"Plant response rating, Redroot pigweed",pigweed; [10],0
same,Redroot pigweed plant response rating,pigweed; [11],3
same,"Plant response rating, Redroot pigweed",pigweed; [12],0
same,Redroot pigweed plant response rating,pigweed; [13],3
same,Redroot pigweed plant response rating,pigweed; [14],0
same,Sugarbeets plant response rating,sugar beet; [3],0
same,Sugarbeets plant response rating,sugar beet; [4],0
same,Sugarbeets plant response rating,sugar beet; [5],0
same,Sugarbeets plant response rating (0 to 10 scale),sugar beet; [6],0
same,Sugarbeets plant response rating,sugar beet; [7],0
same,Sugarbeets plant response rating,sugar beet; [8],0
same,Sugarbeets plant response rating,sugar beet; [9],0
same,"Plant response rating, Sugarbeets",sugar beet; [10],0
same,Sugarbeets plant response rating,sugar beet; [11],0
same,"Plant response rating, Sugarbeets",sugar beet; [12],0
same,Sugarbeets plant response rating,sugar beet; [13],0
same,Sugarbeets plant response rating,sugar beet; [14],0
same,Nutsedge plant response rating,purple nutsedge; [3],0
same,Nutsedge plant response rating,purple nutsedge; [4],0
same,Nutsedge plant response rating,purple nutsedge; [5],0
same,Nutsedge plant response rating (0 to 10 scale),purple nutsedge; [6],0
same,Nutsedge plant response rating,purple nutsedge; [7],0
same,Nutsedge plant response rating,purple nutsedge; [8],0
same,Nutsedge plant response rating,purple nutsedge; [9],0
same,"Plant response rating, Nutsedge",purple nutsedge; [10],0
same,Nutsedge plant response rating,purple nutsedge; [11],0
same,"Plant response rating, Nutsedge",purple nutsedge; [12],0
same,Nutsedge plant response rating,purple nutsedge; [13],0
same,Nutsedge plant response rating,purple nutsedge; [14],0
same,Rice plant response rating,"rice; Postemergence (flood test species), Rate 125 g/ha, scale of 0 to 10 where 0 is no effect and 10 is complete control",0
same,Rice plant response rating,"rice; Rate 62 g/ha, Postemergence section, flood test species, scale of 0 to 10 where 0 is no effect and 10 is complete control",0
same,"Plant response rating, Rice","rice; Rate 250 g/ha, Postemergence (flood test), scale 0 to 10, 0 is no effect, 10 is complete control",0
same,Rice plant response rating,rice; [15],0
same,"Plant response rating, Rice","rice; Rate 500 g/ha, headed Pre-emergence (flood test species), scale 0 to 10 (0 no effect, 10 complete control)",0
same,Rice plant response rating,"rice; Rate 500 g/ha, listed under Postemergence (flood test species), scale 0 to 10",0
same,Rice plant response rating,"rice; Rate 1000 g/ha, Pre-emergence (as headed), scale 0 to 10",0
same,Rice plant response rating,rice; [16],0
same,"Plant response rating, Wheat (winter)","winter wheat [1]; Rate 1000 g/ha, 0 to 100 scale, 0 is no effect and 100 is complete control",65
same,"Plant response rating, Wheat (winter)",winter wheat [1]; [17],70
same,"Plant response rating, Wheat (winter)",winter wheat [1]; [18],70
same,"Plant response rating, Blackgrass",blackgrass; [17],60
same,"Plant response rating, Blackgrass",blackgrass; [19],60
same,"Plant response rating, Blackgrass",blackgrass; [20],60
same,"Plant response rating, Green foxtail",green foxtail; [17],100
same,"Plant response rating, Green foxtail",green foxtail; [19],60
same,"Plant response rating, Green foxtail",green foxtail; [20],85
same,"Plant response rating, I. Ryegrass",Italian ryegrass; [17],65
same,"Plant response rating, I. Ryegrass",Italian ryegrass; [19],60
same,"Plant response rating, I. Ryegrass",Italian ryegrass; [20],60
same,"Plant response rating, Wheat (winter)",winter wheat [2]; [17],70
same,"Plant response rating, Wheat (winter)",winter wheat [2]; [19],70
same,"Plant response rating, Wheat (winter)",winter wheat [2]; [20],50
same,"Plant response rating, Wild oat",wild oat; [17],70
same,"Plant response rating, Wild oat",wild oat; [19],80
same,"Plant response rating, Wild oat",wild oat; [20],80
same,"Plant response rating, Barley (winter)",winter barley; [17],80
same,"Plant response rating, Barley (winter)",winter barley; [19],60
same,"Plant response rating, Barley (winter)",winter barley; [20],70
CCN(C(=O)n1oc(=O)n(N(C)C)c1=O)C1CCCCC1 [Compound 274],Redroot pigweed plant response rating,pigweed; [5],0
same,Redroot pigweed plant response rating,pigweed; [21],0
same,"Plant response rating, Redroot pigweed",pigweed; [22],0
same,Redroot pigweed plant response rating,pigweed; [23],0
same,Redroot pigweed plant response rating,pigweed; [24],0
same,"Plant response rating, Redroot pigweed",pigweed; [25],1
same,Redroot pigweed plant response rating,pigweed; [26],1
same,Sugarbeets plant response rating,sugar beet; [5],0
same,Sugarbeets plant response rating,sugar beet; [21],0
same,"Plant response rating, Sugarbeets",sugar beet; [22],0
same,Sugarbeets plant response rating,sugar beet; [23],0
same,Sugarbeets plant response rating,sugar beet; [24],0
same,"Plant response rating, Sugarbeets",sugar beet; [25],0
same,Sugarbeets plant response rating,sugar beet; [26],1
same,Nutsedge plant response rating,purple nutsedge; [5],0
same,Nutsedge plant response rating,purple nutsedge; [21],0
same,"Plant response rating, Nutsedge",purple nutsedge; [22],0
same,Nutsedge plant response rating,purple nutsedge; [23],0
same,Nutsedge plant response rating,purple nutsedge; [24],0
same,"Plant response rating, Nutsedge",purple nutsedge; [25],0
same,Nutsedge plant response rating,purple nutsedge; [26],0
same,Rice plant response rating,"rice; Pre-emergence, Rate 1000 g/ha, scale 0 to 10 (0 no effect, 10 complete control)",0
same,Rice plant response rating,"rice; Rate 62 g/ha, headed Pre-emergence (flood test species), scale 0 to 10 (0 no effect, 10 complete control)",0
same,Rice plant response rating,"rice; Rate 125 g/ha, Pre-emergence, flood test species, scale 0 to 10 where 0 is no effect and 10 is complete control",0
same,Rice plant response rating,rice; [15],0
same,Rice plant response rating,"rice; Rate 500 g/ha, Pre-emergence, flood test species, scale 0 to 10 (0 no effect, 10 complete control)",0
same,Rice plant response rating,rice; [16],0
same,"Plant response rating, Wheat (winter)",winter wheat [1]; [20],60
same,Wheat (winter) plant response rating,"winter wheat [1]; Rate 250 g/ha, 0 to 100 scale where 0 is no effect and 100 is complete control",30
same,"Plant response rating, Wheat (winter)",winter wheat [1]; [18],50
same,Blackgrass plant response rating (0 to 100 scale),blackgrass; Rate 250 g/ha,0
same,"Plant response rating, Blackgrass",blackgrass; [19],30
same,"Plant response rating, Blackgrass",blackgrass; [27],65
same,Green foxtail plant response rating (0 to 100 scale),green foxtail; Rate 250 g/ha,20
same,"Plant response rating, Green foxtail",green foxtail; [19],30
same,"Plant response rating, Green foxtail",green foxtail; [27],40
same,I. Ryegrass plant response rating (0 to 100 scale),Italian ryegrass; Rate 250 g/ha,20
same,"Plant response rating, I. Ryegrass",Italian ryegrass; [19],30
same,"Plant response rating, I. Ryegrass",Italian ryegrass; [27],50
same,Wheat (winter) plant response rating (0 to 100 scale),winter wheat [2]; Rate 250 g/ha,30
same,"Plant response rating, Wheat (winter)",winter wheat [2]; [19],50
same,"Plant response rating, Wheat (winter)",winter wheat [2]; [27],50
same,Wild oat plant response rating (0 to 100 scale),wild oat; Rate 250 g/ha,40
same,"Plant response rating, Wild oat",wild oat; [19],50
same,"Plant response rating, Wild oat",wild oat; [27],60
same,Barley (winter) plant response rating (0 to 100 scale),winter barley; Rate 250 g/ha,50
same,"Plant response rating, Barley (winter)",winter barley; [19],60
same,"Plant response rating, Barley (winter)",winter barley; [27],55
